In the supplement of paper PMC11451515:

System: SEM cells
Assay: cell viability relative to DMSO control; higher = less cytotoxic
Settings: 48 h
How it was run: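 Viability is expressed as a percentage of DMSO wells within each plate, and cell-free wells serve as background. Seeding densities in the 1536-well plates (5 μl) were 500 cells/well for NOMO1 or SEM leukemia cells and 1000 cells/well for P12-Ichikawa. Each line was adapted for at least four passages in each medium. Library compounds in DMSO were pin-dosed at 47 μM to 0.79 nM (11 points, threefold), and CellTiter-Glo One luminescence was read after 48 h at 37°C.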

[1] = HPLM + 10% dialyzed FBS, 0.000781 µM
[2] = HPLM + 10% dialyzed FBS, 0.00234 µM
[3] = HPLM + 10% dialyzed FBS, 0.00702 µM
[4] = HPLM + 10% dialyzed FBS, 0.0211 µM
[5] = HPLM + 10% dialyzed FBS, 0.0632 µM
[6] = HPLM + 10% dialyzed FBS, 0.19 µM
[7] = HPLM + 10% dialyzed FBS, 0.569 µM
[8] = HPLM + 10% dialyzed FBS, 1.71 µM
[9] = HPLM + 10% dialyzed FBS, 5.12 µM
[10] = HPLM + 10% dialyzed FBS, 15.4 µM
[11] = HPLM + 10% dialyzed FBS, 46.1 µM
[12] = RPMI 5 mM glucose + 10% FBS, 0.000781 µM
[13] = RPMI 5 mM glucose + 10% FBS, 0.00234 µM
[14] = RPMI 5 mM glucose + 10% FBS, 0.00702 µM
[15] = RPMI 5 mM glucose + 10% FBS, 0.0211 µM
[16] = RPMI 5 mM glucose + 10% FBS, 0.0632 µM
[17] = RPMI 5 mM glucose + 10% FBS, 0.19 µM
[18] = RPMI 5 mM glucose + 10% FBS, 0.569 µM
[19] = RPMI 5 mM glucose + 10% FBS, 1.71 µM
[20] = RPMI 5 mM glucose + 10% FBS, 5.12 µM
[21] = RPMI 5 mM glucose + 10% FBS, 15.4 µM
[22] = RPMI 5 mM glucose + 10% FBS, 46.1 µM
[23] = RPMI 5 mM glucose + 10% dialyzed FBS, 0.000781 µM
[24] = RPMI 5 mM glucose + 10% dialyzed FBS, 0.00234 µM
[25] = RPMI 5 mM glucose + 10% dialyzed FBS, 0.00702 µM
[26] = RPMI 5 mM glucose + 10% dialyzed FBS, 0.0211 µM
[27] = RPMI 5 mM glucose + 10% dialyzed FBS, 0.0632 µM
[28] = RPMI 5 mM glucose + 10% dialyzed FBS, 0.19 µM
[29] = RPMI 5 mM glucose + 10% dialyzed FBS, 0.569 µM
[30] = RPMI 5 mM glucose + 10% dialyzed FBS, 1.71 µM
[31] = RPMI 5 mM glucose + 10% dialyzed FBS, 5.12 µM
[32] = RPMI 5 mM glucose + 10% dialyzed FBS, 15.4 µM
[33] = RPMI 5 mM glucose + 10% dialyzed FBS, 46.1 µM

Structure (SMILES) | cell viability [1] [%] | cell viability [2] [%] | cell viability [3] [%] | cell viability [4] [%] | cell viability [5] [%] | cell viability [6] [%] | cell viability [7] [%] | cell viability [8] [%] | cell viability [9] [%] | cell viability [10] [%] | cell viability [11] [%] | cell viability [12] [%] | cell viability [13] [%] | cell viability [14] [%] | cell viability [15] [%] | cell viability [16] [%] | cell viability [17] [%] | cell viability [18] [%] | cell viability [19] [%] | cell viability [20] [%] | cell viability [21] [%] | cell viability [22] [%] | cell viability [23] [%] | cell viability [24] [%] | cell viability [25] [%] | cell viability [26] [%] | cell viability [27] [%] | cell viability [28] [%] | cell viability [29] [%] | cell viability [30] [%] | cell viability [31] [%] | cell viability [32] [%] | cell viability [33] [%]
C/C(=C\c1csc(C)n1)[C@@H]1C[C@@H]2O[C@@H]2CCC[C@H](C)[C@H](O)[C@@H](C)C(=O)C(C)(C)[C@@H](O)CC(=O)O1 | 26.5 | 21.4 | 22.1 | 22.7 | 19.9 | 20.3 | 23.7 | 21.5 | 19.1 | 20.8 | 20.7 | 14.8 | 18.4 | 16.2 | 16 | 16.4 | 16.4 | 16.2 | 13.4 | 16.1 | 16.3 | 13.4 | 32.1 | 17.1 | 19.3 | 16.8 | 15.6 | 17.7 | 19.6 | 15.2 | 18.7 | 21.8 | 19.2
Cn1cc(-c2cnn3c(N)c(Br)c([C@@H]4CCCNC4)nc23)cn1 | 75.1 | 93.2 | 94.8 | 86.4 | 93.6 | 93.6 | 71.3 | 29.1 | 19.4 | 16.7 | 8.44 | 87.4 | 99.9 | 101 | 94.4 | 91.8 | 93.6 | 96.6 | 63 | 22.4 | 16.3 | 7.88 | 76.8 | 90.9 | 84.6 | 88.9 | 83.6 | 94.2 | 69.5 | 31.3 | 13.2 | 12.8 | 7.35
C[C@H]1[C@H](O)O[C@@H]2O[C@@]3(C)CC[C@H]4[C@H](C)CC[C@@H]1[C@@]24OO3 | 86.7 | 82.3 | 90.2 | 92.7 | 95.8 | 109 | 105 | 98.3 | 41.5 | 22.4 | 17.9 | 82.3 | 93 | 90.8 | 89.3 | 96.9 | 94.8 | 93.1 | 74.5 | 47.1 | 10.1 | 5.91 | 74.7 | 82.1 | 89 | 82.8 | 76 | 111 | 89.8 | 87.1 | 17.6 | 8.87 | 8.68
Cn1cnc(-c2cc3nccc(Oc4ccc(NC(=S)NC(=O)Cc5ccccc5)cc4F)c3s2)c1 | 53.6 | 82.3 | 67.1 | 57.5 | 46 | 46.9 | 43.9 | 30.5 | 31.2 | 32.4 | 12.8 | 82.5 | 94.7 | 85.6 | 68.4 | 53.7 | 66.1 | 46.2 | 38.2 | 30.5 | 24.8 | 2.88 | 68.9 | 63.1 | 70 | 43.8 | 35.3 | 36 | 35.3 | 25.4 | 24.7 | 20.1 | 4.88
